Test results taken from patent US10869931B2, “Polyethylene glycol-modified angiogenesis inhibitor HM-1 and application thereof” (NANJING ANJI BIOLOGICAL TECHNOLOGY CO.,LTD, priority 2016, dated 2020).
Marks after values point to notes of the source that are not given here. Where no end group is shown, it is not given here.

Experiments:
[1] = tested on: Head and neck cancer tumor cells; assay: MTT proliferation inhibition, head and neck cancer cells; assay type: cell-based, human; set-up: concentration or dose not given beside the values; details: 48 h
Experimental: (§1) The activity of mPEG-HM-1 to inhibit the growth of various tumor cells was examined by MTT assay. The tumor cells were cultured to a concentration of 90% or more in a 37° C., 5% CO2 incubator and collected by trypsinization. The cells were resuspended in the culture medium and counted under a microscope to adjust the cell concentration to 2×10^4 cells/mL, the cell suspension was inoculated into a 96-well plate at 100 μL/well and incubated overnight at 37° C. in a 5% CO2 incubator. mPEG-HM-1 was diluted with the culture solution to each predetermined concentration. Docetaxel is diluted to the final concentration with the culture medium. After the cells were fully attached, each dilution was added to a 96-well plate (100 μL/well). The mPEG-HM-1 dilution was added as a drug-administered group, and docetaxel was added as a positive control group, and a culture solution without any drug was used as a negative control group. Incubate for 48 h at 37° C. in a 5% CO2 incubator. 5 mg/mL of MTT was added to a 96-well plate at 20 μL per well, and incubation was continued for 4 hours. The medium was aspirated, dissolved in 150 μL of DMSO per well, and gently mixed by shaking for 10 min. The absorbance was measured at a measurement wavelength of 570 nm and a reference wavelength of 630 nm using a microplate reader, and the rate of growth inhibition (proliferation inhibition, PI) was calculated. The formula is as follows: PI (%)=1−administration group/negative group
(§2) The test was repeated 3 times independently, and the results obtained by the test were expressed as mean±SD, and the test results are shown in Table 15 to Table 18.

[2] = tested on: Brain tumor cells; assay: MTT proliferation inhibition, brain tumor cells; assay type: cell-based, human; set-up: concentration or dose not given beside the values; details: 48 h
Experimental: as §1, §2

[3] = tested on: Kidney cancer tumor cells; assay: MTT proliferation inhibition, kidney cancer cells; assay type: cell-based, human; set-up: concentration or dose not given beside the values; details: 48 h
Experimental: as §1, §2

[4] = tested on: Ovarian cancer tumor cells; assay: MTT proliferation inhibition, ovarian cancer cells; assay type: cell-based, human; set-up: concentration or dose not given beside the values; details: 48 h
Experimental: as §1, §2

[5] = tested on: choroidal neovascularization in BN rats; assay: Laser-induced choroidal neovascularization in BN rats (FFA); assay type: in vivo, rat
Experimental: 6-8 weeks old male BN rats were anesthetized with 846 compound anesthetic 0.5 mL/kg administered intraperitoneally. The eye drops of compound tropamide eyes were used 5 minutes before laser photocoagulation, and the pupils of both eyes were fully scattered. Fix animals, with the aid of −53.00 D contact lens, around the optic disc and along the same distance from the optic disc 2PD, the laser beam photocoagulation were performed to make a total of 8 photo-condensation spots, with laser wavelength of 647.1 nm, power of 350 mW, photocoagulation spot diameter and time were 50 μm and 0.05 s, respectively. Immediately after photocoagulation, fundus photography was performed. FFA, histopathology and transmission electron microscopy were performed at 3, 7, 14, 21, and 28 days after photocoagulation.
It was confirmed by fundus photography and FFA examination that the fluorescein leakage of photocoagulation peaked on the 21st day after photocoagulation, and histopathological examination was performed at the same time. […] A large number of neovascular vessels were seen, and red blood cells were visible in the lumen. Microscopically, capillary cells in the choroidal melanocytes were cohesively altered and endothelial cells aggregated.
Rats that were successfully modeled were randomly divided into groups of 5 rats each. They were labeled as negative control group, mPEG-SC-HM-1 treatment group, mPEG2-NHS-HM-1 treatment group, mPEG-ALD-HM-1 treatment group and mPEG-bALD-HM-1 treatment group, respectively. Saline, mPEG-HM-1 (see Table 53 for dosing) was administered intravitreally, once daily for 1 week. FFA examinations were performed 3 days, 7 days, 14 days, and 28 days after administration of the modified peptides.

[6] = tested on: Breast cancer tumor cells; assay: MTT proliferation inhibition, breast cancer cells; assay type: cell-based, human; set-up: concentration or dose not given beside the values; details: 48 h
Experimental: as §1, §2

[7] = tested on: Prostate cancer tumor cells; assay: MTT proliferation inhibition, prostate cancer cells; assay type: cell-based, human; set-up: concentration or dose not given beside the values; details: 48 h
Experimental: as §1, §2

[8] = tested on: xylene-induced ear swelling in Kunming mice; assay: Xylene-induced ear swelling in mice; assay type: in vivo, mouse; details: for Inhibition rate: ear swelling vs control
Experimental: Kunming mice were used. The saline group was used as the blank control group, the aspirin group (200 mg/kg) as the positive control group, and the mPEG-HM-1 administration group as the experimental group. Mice were administered once daily for 5 consecutive days. The blank control group was given an equal volume of physiological saline. One hour after the last administration, 0.05 mL of xylene was applied to both sides of the right ear of the mice to cause inflammation, and the left ear was not coated as normal ears. After 2 h, the mice were sacrificed by dislocation, and the ears were cut along the auricle. Ear pieces were taken with a puncher, weighed, and the swelling degree and swelling rate were calculated. Swelling degree=right ear piece weight-left ear piece weight, swelling rate=(swelling degree/left ear piece weight)×100%. Statistical t-test was performed on the test results, *P<0.05 was a significant difference, and **P<0.01 was a very significant difference. See Table 31 to Table 34 for the results.

[9] = tested on: mouse spleen lymphocytes; assay: ConA-stimulated mouse spleen lymphocyte proliferation (MTT); assay type: cell-based; details: ConA 5 μg/mL, 48 h
Experimental: Tris-NH4Cl was used to break the red blood cells, and the cells were allowed to stand in an ice water bath for 4 min, centrifuged (1000 rpm×5 min), the supernatant was discarded, and the cells were washed twice with sterile PBS. Finally, cells were suspended in RPMI 1640 medium (5 mL) supplemented with 10% calf serum, counted, adjusted to a cell concentration of 5×10^6/mL, and cultured in a 96-well culture plate The test group consisted of blank control group, concanavalin A (ConA) group, dexamethasone (Dex) group (0.02 mg/mL) and mPEG-HM-1 group. […] The cells were cultured in a 37° C. cell culture chamber for 48 h. After the completion of the culture, 20 μL of MTT was added to each well, and the culture was continued for 4 h. Finally, all the solutions in each well were discarded, 100 μL of DMSO was added to each well, and the mixture was shaken and detected by a microplate reader OD value at 570 nm, 5 parallels per hole.

[10] = 20 mg/kg once daily for 5 days, 2 h after xylene
[11] = 40 mg/kg once daily for 5 days, 2 h after xylene
[12] = 10 mg/kg once daily for 5 days, 2 h after xylene

Substance | rate of growth inhibition [1] [%] | rate of growth inhibition [2] [%] | rate of growth inhibition [3] [%] | rate of growth inhibition [4] [%] | rate of growth inhibition [6] [%] | rate of growth inhibition [7] [%] | Swelling [8, 10] | Inhibition rate ([8]; 20 mg/kg once daily for 5 days) [%] | Swelling [8, 11] | Inhibition rate ([8]; 40 mg/kg once daily for 5 days) [%] | A570 nm/A630 nm ([9]; 20 μg/mL) | Inhibition Rate of spleen lymphocyte proliferation ([9]; 20 μg/mL) [%] | A570 nm/A630 nm ([9]; 40 μg/mL) | Inhibition Rate of spleen lymphocyte proliferation ([9]; 40 μg/mL) [%] | Swelling [8, 12] | Inhibition rate ([8]; 10 mg/kg once daily for 5 days) [%] | A570 nm/A630 nm ([9]; 10 μg/mL) | Inhibition Rate of spleen lymphocyte proliferation ([9]; 10 μg/mL) [%] | other results
mPEG-ALD20k-Arg-Gly-Ala-Asp-Arg-Ala-Gly-Gly-Gly-Gly-Arg-Gly-Asp ({mPEG‑ALD 20 kDa}-RGADRAGGGGRGD) [mPEG-ALD20k-HM-1] | 47.61 ± 10.68 | 56.89 ± 15.41 | 70.23 ± 20.58 | 80.68 ± 21.69 | 65.17 ± 18.20 | 43.99 ± 12.77 | 4.89 ± 0.20 mg | 20.10 | 4.52 ± 0.32* mg | 26.19 | 0.6035 ± 0.0989 | 12.14 | 0.4876 ± 0.1259 | 29.02 |  |  |  |  | CNV Incidence rate ([5]; Day 3 after administration, 100 μg intravitreally once daily for 1 week (Table 53)): 51.72%; leakage Spots # ([5]; Day 3 after administration, 100 μg intravitreally once daily for 1 week (Table 53), total spots 290-296 by table): 150; CNV Incidence rate ([5]; Day 7, 100 μg intravitreally once daily for 1 week (Table 53)): 48.90%; leakage Spots # ([5]; Day 7, 100 μg intravitreally once daily for 1 week (Table 53), total spots 182-188 by table): 89; CNV Incidence rate ([5]; Day 14, 100 μg intravitreally once daily for 1 week (Table 53)): 45.45%; leakage Spots # ([5]; Day 14, 100 μg intravitreally once daily for 1 week (Table 53), total spots 132-138 by table): 60; CNV Incidence rate ([5]; Day 28, 100 μg intravitreally once daily for 1 week (Table 53)): 40.85%; leakage Spots # ([5]; Day 28, 100 μg intravitreally once daily for 1 week (Table 53), total spots 67-71 by table): 29; Swelling ([8]; 80 mg/kg once daily for 5 days, 2 h after xylene): 3.70 ± 0.20** mg; Inhibition rate ([8]; 80 mg/kg once daily for 5 days): 39.47%; inhibition rate of ear swelling ([8]; 80 mg/kg, once daily for 5 days, mice): 37.76%; A570 nm/A630 nm ([9]; 80 μg/mL): 0.4406 ± 0.1074; Inhibition Rate of spleen lymphocyte proliferation ([9]; 80 μg/mL): 35.85%
mPEG2-NHS5k-Arg-Gly-Ala-Asp-Arg-Ala-Gly-Gly-Gly-Gly-Arg-Gly-Asp ({mPEG2‑NHS 5 kDa}-RGADRAGGGGRGD) [mPEG2-NHS5k-HM-1] | 37.13 ± 11.32 | 40.35 ± 10.29 | 47.52 ± 11.48 | 56.88 ± 21.07 | 45.69 ± 12.10 | 39.33 ± 12.01 | 4.31 ± 0.20** mg | 30.23 |  |  | 0.4873 ± 0.1126 | 29.62 |  |  | 4.94 ± 0.28* mg | 20.05 | 0.5624 ± 0.1098 | 18.78 | CNV Incidence rate ([5]; Day 3 after administration, 25 μg intravitreally once daily for 1 week (Table 53)): 56.12%; leakage Spots # ([5]; Day 3 after administration, 25 μg intravitreally once daily for 1 week (Table 53), total spots 290-296 by table): 165; CNV Incidence rate ([5]; Day 7, 25 μg intravitreally once daily for 1 week (Table 53)): 55.49%; leakage Spots # ([5]; Day 7, 25 μg intravitreally once daily for 1 week (Table 53), total spots 182-188 by table): 101; CNV Incidence rate ([5]; Day 14, 25 μg intravitreally once daily for 1 week (Table 53)): 45.99%; leakage Spots # ([5]; Day 14, 25 μg intravitreally once daily for 1 week (Table 53), total spots 132-138 by table): 63; CNV Incidence rate ([5]; Day 28, 25 μg intravitreally once daily for 1 week (Table 53)): 48.53%; leakage Spots # ([5]; Day 28, 25 μg intravitreally once daily for 1 week (Table 53), total spots 67-71 by table): 33; Inhibition rate ([8]; 5 mg/kg once daily for 5 days): 10.02%; Swelling ([8]; 5 mg/kg once daily for 5 days, right minus left ear piece weight 2 h after xylene): 5.56 ± 0.19 mg; A570 nm/A630 nm ([9]; 5 μg/mL): 0.6304 ± 0.0983; Inhibition Rate of spleen lymphocyte proliferation ([9]; 5 μg/mL): 8.96%
mPEG-bALD10k-Arg-Gly-Ala-Asp-Arg-Ala-Gly-Gly-Gly-Gly-Arg-Gly-Asp ({mPEG‑bALD 10 kDa}-RGADRAGGGGRGD) [mPEG-bALD10k-HM-1] | 49.01 ± 12.14 | 59.37 ± 14.52 | 70.19 ± 18.11 | 80.35 ± 20.53 | 68.15 ± 15.87 | 50.02 ± 10.65 | 4.64 ± 0.72* mg | 23.63 | 3.59 ± 0.35** mg | 40.88 | 0.5469 ± 0.1122 | 21.18 | 0.4666 ± 0.1040 | 32.75 | 5.37 ± 0.14 mg | 11.54 | 0.6179 ± 0.1049 | 10.94 | CNV Incidence rate ([5]; Day 3 after administration, 50 μg intravitreally once daily for 1 week (Table 53)): 48.46%; leakage Spots # ([5]; Day 3 after administration, 50 μg intravitreally once daily for 1 week (Table 53), total spots 290-296 by table): 142; CNV Incidence rate ([5]; Day 7, 50 μg intravitreally once daily for 1 week (Table 53)): 46.49%; leakage Spots # ([5]; Day 7, 50 μg intravitreally once daily for 1 week (Table 53), total spots 182-188 by table): 86; CNV Incidence rate ([5]; Day 14, 50 μg intravitreally once daily for 1 week (Table 53)): 42.03%; leakage Spots # ([5]; Day 14, 50 μg intravitreally once daily for 1 week (Table 53), total spots 132-138 by table): 58; CNV Incidence rate ([5]; Day 28, 50 μg intravitreally once daily for 1 week (Table 53)): 39.13%; leakage Spots # ([5]; Day 28, 50 μg intravitreally once daily for 1 week (Table 53), total spots 67-71 by table): 27
